# Where two headings read alike, the source gives them in different places.
# Experiments:
# Or22a and Or83b [1] = target: T1, Or22a and Or83b (Drosophila melanogaster, UniProt P81909+Q9VNB5); experiment: Whole-cell patch-clamp of currents in HEK293 cells coexpressing Or22a and Or83b; type: cell-based; conditions: 500 µM GDP-β-S in the pipette; n = 11
# T1 construct: expressed in transfected cells; host or cells: HEK293
# T1 sequence (P81909 1-397): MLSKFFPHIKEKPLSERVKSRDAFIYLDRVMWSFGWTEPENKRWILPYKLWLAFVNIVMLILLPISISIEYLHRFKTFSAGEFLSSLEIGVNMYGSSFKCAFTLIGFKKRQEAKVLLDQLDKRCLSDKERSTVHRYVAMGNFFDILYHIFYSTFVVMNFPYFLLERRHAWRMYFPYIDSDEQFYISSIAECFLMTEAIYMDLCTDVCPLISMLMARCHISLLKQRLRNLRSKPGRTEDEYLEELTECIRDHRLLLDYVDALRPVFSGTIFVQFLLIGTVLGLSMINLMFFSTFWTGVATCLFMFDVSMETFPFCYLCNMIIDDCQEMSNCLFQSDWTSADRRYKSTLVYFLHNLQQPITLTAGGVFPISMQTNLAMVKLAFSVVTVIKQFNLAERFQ
# T1 sequence (Q9VNB5 1-486): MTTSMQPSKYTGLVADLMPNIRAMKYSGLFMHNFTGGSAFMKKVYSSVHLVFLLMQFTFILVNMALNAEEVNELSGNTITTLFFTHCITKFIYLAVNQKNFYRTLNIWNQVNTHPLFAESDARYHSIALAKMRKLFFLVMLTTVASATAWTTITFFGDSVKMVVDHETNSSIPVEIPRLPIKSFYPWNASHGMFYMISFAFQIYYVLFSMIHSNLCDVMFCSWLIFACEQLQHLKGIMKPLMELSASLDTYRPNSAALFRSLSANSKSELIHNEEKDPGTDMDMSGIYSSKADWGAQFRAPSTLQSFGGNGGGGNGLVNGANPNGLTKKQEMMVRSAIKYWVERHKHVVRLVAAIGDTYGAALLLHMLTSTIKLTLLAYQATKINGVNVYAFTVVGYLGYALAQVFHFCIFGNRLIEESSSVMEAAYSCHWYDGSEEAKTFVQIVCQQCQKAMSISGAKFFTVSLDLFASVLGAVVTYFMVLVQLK
# Or22a and Or83b [2] = target: T1, Or22a and Or83b; experiment: as above; type: cell-based
# Method: In some experiments we transfected cells with pcDNA3-DOR22a-GFP or pcDNA3-DOR83b-GFP alone. We also examined the properties of DOR47a, which was cloned, using standard molecular biology methods into a pcDNA3.1(-) expression vector. To test for putative G-protein coupling, cells were transfected with the respective OR-DNA together with 1.5 µg hHCN2/pcDNA3 (provided by M. Biel, Munich, Germany), with 1 µg hKCNQ4/pcDNA3.1 or with 1 µg hCNGA2/pCMV6-XL4 (Origene, Rockville, MD, USA).
# In brief, ion currents in HEK293 cells were measured at room temperature using whole-cell patch-clamp with appropriate compensation of series resistance and of capacitive currents. Additional experiments were performed in the outside-out configuration. Current measurements and data acquisition were performed using an EPC9 patch-clamp amplifier controlled by PatchMaster software (both HEKA Elektronik, Lambrecht, Germany). Patch-clamp pipettes were fabricated from borosilicate capillaries. Pipettes for whole-cell recordings had resistances of 2-4 MΩ for excised-patch recordings the pipette resistance was up to 15 MΩ.
# To differentiate between ionotropic and metabotropic pathways of receptor activation (Fig. 2a-d) the pipette solution contained either 2 mM ATP plus 2 mM GTP or 2 mM ADP plus 2 mM GDP (both for whole-cell and outside-out configuration). For the preparation of Cl^--free solutions the chloride salts were substituted by gluconate salts. The pipette Cs^+ solution contained (in mM) 140 CsCl, 1 Mg-ATP, 10 EGTA, 10 HEPES (pH = 7.3), and the Cs^+ bath solution contained (in mM) 140 CsCl, 15 glucose, 15 HEPES (pH = 7.4). The Ca^2+-free bath solution contained (in mM) 140 NaCl, 15 glucose, 15 HEPES, and the Na^+-free bath solution contained (in mM) 140 NMDG-Cl, 10 CaCl2, 10 glucose, 15 HEPES.
# With the exception of GDP-γ-S, which was applied via the patch pipette, all substances were applied to the bath using either a bath perfusion system (BPS4 from ALA, New York, USA) or a rapid solution changer (RSC160 from Biologic, Claix, France) which were controlled by the PatchMaster software (HEKA Elektronik).
# [3] = Etb 100 nM, 1 s, whole-cell, -60 mV, Or22a C-terminal GFP fusion protein, ADP and GDP (-)
# [4] = Etb 100 nM, 1 s, whole-cell, -60 mV, Or22a C-terminal GFP fusion protein, ATP and GTP (+)
# [5] = Etb 100 nM, 1 s, whole-cell, -60 mV, Or22a N-terminal GFP fusion protein, ADP and GDP (-)
# [6] = Etb 100 nM, 1 s, whole-cell, -60 mV, Or22a N-terminal GFP fusion protein, ATP and GTP (+)
# [7] = short Etb application, whole-cell, -60 mV, Tab. 1
# [8] = short Etb application, whole-cell, -60 mV, internal ATP and GTP, Tab. 1
structure (smiles),measurement,setting,value
"CCCC(=O)OCC [Etb, ethyl butyrate]",Hill coefficient of Etb-induced currents,Or22a and Or83b [1],1.1
same,further increase of current,Or22a and Or83b [2]; 100 µM Etb after stimulation with 100 µM 8-bromo-cAMP,+1.6 ± 3.8 % of current induced by 8-bromo-cAMP
same,Etb-induced current in symmetrical Cs+ solutions,"Or22a and Or83b [2]; 140 mM Cs+ in pipette and bath solution, n = 6",No current was detected
same,EC50,"Or22a and Or83b [2]; EC50 of Etb-induced currents, 500 µM GDP-β-S in the pipette, n = 11",70 nM
same,latency of Ii,"Or22a and Or83b [2]; Etb 100 nM, 1 s, whole-cell, -60 mV",< 0.5 s
same,Ii Decay time,Or22a and Or83b [2]; [3],10.8 ± 0.6 s
same,Ii Peak size,Or22a and Or83b [2]; [3],133 ± 51 pA
same,Ii Peak time,Or22a and Or83b [2]; [3],1.13 ± 0.02 s
same,Im Decay time,Or22a and Or83b [2]; [3],68 ± 8 s
same,Im Latency,Or22a and Or83b [2]; [3],18 ± 8 s
same,Im Peak size,Or22a and Or83b [2]; [3],77 ± 7 PA
same,Im Peak time,Or22a and Or83b [2]; [3],43 ± 9 s
same,Ii Decay time,Or22a and Or83b [2]; [4],10.5 ± 0.7 s
same,Ii Peak size,Or22a and Or83b [2]; [4],100 ± 23 pA
same,Ii Peak time,Or22a and Or83b [2]; [4],1.10 ± 0.03 s
same,Im Decay time,Or22a and Or83b [2]; [4],79 ± 5 s
same,Im Latency,Or22a and Or83b [2]; [4],10 ± 2 s
same,Im Peak size,Or22a and Or83b [2]; [4],291 ± 54 PA
same,Im Peak time,Or22a and Or83b [2]; [4],58 ± 4 s
same,Ii Decay time,Or22a and Or83b [2]; [5],10.4 ± 0.9 s
same,Ii Peak size,Or22a and Or83b [2]; [5],132 ± 38 pA
same,Ii Peak time,Or22a and Or83b [2]; [5],0.90 ± 0.17 s
same,Im Decay time,Or22a and Or83b [2]; [5],63 ± 9 s
same,Im Latency,Or22a and Or83b [2]; [5],24 ± 5 s
same,Im Peak size,Or22a and Or83b [2]; [5],51 ± 6 PA
same,Im Peak time,Or22a and Or83b [2]; [5],44 ± 6 s
same,Ii Decay time,Or22a and Or83b [2]; [6],10.2 ± 0.9 s
same,Ii Peak size,Or22a and Or83b [2]; [6],98 ± 23 pA
same,Ii Peak time,Or22a and Or83b [2]; [6],1.16 ± 0.06 s
same,Im Decay time,Or22a and Or83b [2]; [6],80 ± 8 s
same,Im Latency,Or22a and Or83b [2]; [6],11 ± 3 s
same,Im Peak size,Or22a and Or83b [2]; [6],311 ± 51 PA
same,Im Peak time,Or22a and Or83b [2]; [6],62 ± 9 s
same,Hill coefficient of olfactory receptor current (ORC),"Or22a and Or83b [2]; cells coexpressing Or22a, Or83b and hKCNQ4, n = 6",0.41
same,EC50,"Or22a and Or83b [2]; cells coexpressing Or22a, Or83b and hKCNQ4, normalized to maximum response, n = 6, read-out: EC50 of olfactory receptor current (ORC)",0.256 nM
same,Hill coefficient of Etb-induced currents,"Or22a and Or83b [2]; control conditions, n = 9",0.61
same,EC50,"Or22a and Or83b [2]; control conditions, n = 9, read-out: EC50 of Etb-induced currents",0.677 nM
same,EC50,"Or22a and Or83b [2]; half-maximal effect (current size), metabotropic current response",~0.7 nM
same,odorant concentration at which current size saturates,"Or22a and Or83b [2]; metabotropic current response, Fig. 2f",about 100 nM
same,odour-induced current in Cl^--free solutions,Or22a and Or83b [2]; n = 5,remained unchanged
same,Ii peak,Or22a and Or83b [2]; [7],1 s
same,Ii termination,Or22a and Or83b [2]; [7],10 s
same,Im Latency,Or22a and Or83b [2]; [8],10 s
same,Im peak,Or22a and Or83b [2]; [8],60 s
same,Im termination,Or22a and Or83b [2]; [8],80 s

# — patent EP2108954A1, “A test system for detecting intracellular cyclic nucleotide level and methods and uses thereof” (Max-Planck-Gesellschaft zur Förderung der Wissenschaften …, priority 2008, dated 2009)
